In patent publication US11498928B2, “Macrocyclic spiroethers as Mcl-1 inhibitors” (ASCENTAGE PHARMA (SUZHOU) CO., LTD., priority 2019, dated 2022) one finds IC50 data, which are given here for 15 molecules.

For assay [1], the target named is T1, Mcl-1 protein (residues 171-323) (Homo sapiens, UniProt Q07820).
T1 construct: Tag-free Mcl-1 protein (residues 171-323) was used in the FP assay
Put plainly: Inhibition of Mcl-1 by fluorescence polarization (FP) competitive binding assay with FAM-Bid tracer. The note with it: 2 nM FAM-Bid, 20 nM Mcl-1, 30 min. The essentials:
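Tag-free Mcl-1 (20 nM) with 2 nM FAM-Bid peptide in PBS, 0.01% BGG, 0.01% Triton X-100, 5% DMSO, 30 min at room temperature. FP read at Ex 485/Em 528 nm. IC50 from 10-point curves normalised to DMSO and no-protein controls.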

For assay [2], the system named is OPM-2 cells. Put plainly: Cell viability assay (OPM-2 cells), CCK-8. The class given is cell-based. As to conditions: 5% FBS. The essentials: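 OPM-2 myeloma cells (20000/well) exposed to serially diluted compound for 24 h at 37 °C, 5% CO2, then incubated 4 h with CCK-8 and read at 450 nm. Readings normalized to vehicle; IC50 from nonlinear regression.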
For assay [3], the system named is NCI-H929 cells. Nature of the assay: Cell viability assay (NCI-H929 cells), CCK-8. The class given is cell-based. The note with it: 5% FBS. The essentials:
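NCI-H929 cells from ATCC were seeded at 20000 cells/well in 95 μL of culture medium in 96-well plates and grown for 4 hrs. Compounds, serially diluted in DMSO and further diluted in medium, were added as 5 μL, and cells were incubated for 24 hrs at 37° C. with 5% CO2. Viability was measured with CCK-8.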

T1 sequence (Q07820 171-323): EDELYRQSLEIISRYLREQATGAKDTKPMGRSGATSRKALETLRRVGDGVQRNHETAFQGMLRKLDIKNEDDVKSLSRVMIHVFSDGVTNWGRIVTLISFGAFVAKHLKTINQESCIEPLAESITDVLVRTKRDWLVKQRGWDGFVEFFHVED

`C[C@@H]1[C@@H](C)S(=O)(=O)NC(=O)c2ccc3c(c2)N(C[C@@H]2CC[C@H]2[C@@H](OCCS(C)(=O)=O)C2=C[C@H]1C2)C[C@@]1(CCCc2c1ccc(Cl)c2F)CO3` [compound 61, (1S,11′R,12′S,13′R,16′R,16a′R,18a′R,E)-6-chloro-5-fluoro-11′,12′-dimethyl-16′-(2-(methylsulfonyl)ethoxy)-3,4,12′,13′,16′,16a′,17′,18′,18a′,19′-decahydro-1′H,2H,3′H,11′H-spiro[naphthalene-1,2′-[5,7]etheno[13,15]methanocyclobuta[i][1,4]oxazepino[3,4-f][1]thia[2,7]diazacyclohexadecin]-8′(9′H)-one 10′,10′-dioxide]: the IC50 in assay [1] is 10 nM; in assay [2] (Homo sapiens, OPM-2, 24 h) it was 75 nM; in assay [3] (Homo sapiens, NCI-H929, 24 h), 28 nM.
For `CC(C)OC(=O)CO[C@H]1C2=C[C@@H](C2)[C@H](C)[C@@H](C)S(=O)(=O)NC(=O)c2ccc3c(c2)N(C[C@@H]2CC[C@H]21)C[C@@]1(CCCc2c1ccc(Cl)c2F)CO3` [compound 73, isopropyl 2-(((1S,11′R,12′S,13′R,16′R,16a′R,18a′R,E)-6-chloro-5-fluoro-11′,12′-dimethyl-10′,10′-dioxido-8′-oxo-3,4,8′,9′,12′,13′,16′,16a′,17′,18′,18a′,19′-dodecahydro-1′H,2H,3′H,11′H-spiro[naphthalene-1,2′-[5,7]etheno[13,15]methanocyclobuta[i][1,4]oxazepino[3,4-f][1]thia[2,7]diazacyclohexadecin]-16′-yl)oxy)acetate], the 50% inhibitory concentration (IC50) in assay [1] was 19 nM; in assay [2] (Homo sapiens, OPM-2, 24 h), 67 nM; in assay [3] (Homo sapiens, NCI-H929, 24 h), 150 nM.
In the case of `COC1CCN(CCO[C@H]2C3=C[C@@H](C3)[C@H](C)[C@@H](C)S(=O)(=O)NC(=O)c3ccc4c(c3)N(C[C@@H]3CC[C@H]32)C[C@@]2(CCCc3c2ccc(Cl)c3F)CO4)CC1` [compound 75, (1S,11′R,12′S,13′R,16′R,16a′R,18a′R,E)-6-chloro-5-fluoro-16′-(2-(4-methoxypiperidin-1-yl)ethoxy)-11′,12′-dimethyl-3,4,12′,13′,16′,16a′,17′,18′,18a′,19′-decahydro-1′H,2H,3′H,11′H-spiro[naphthalene-1,2′-[5,7]etheno[13,15]methanocyclobuta[i][1,4]oxazepino[3,4-f][1]thia[2,7]diazacyclohexadecin]-8′(9′H)-one 10′,10′-dioxide], the 50% inhibitory concentration (IC50) was found to be 36 nM in assay [1]; 41 nM in assay [2] (Homo sapiens, OPM-2, 24 h); 51 nM in assay [3] (Homo sapiens, NCI-H929, 24 h).
In the case of `C[C@@H]1[C@@H](C)S(=O)(=O)NC(=O)c2ccc3c(c2)N(C[C@@H]2CC[C@H]2[C@@H](OCC(=O)N2CCCC2)C2=C[C@H]1C2)C[C@@]1(CCCc2c1ccc(Cl)c2F)CO3` [compound 68, (1S,11′R,12′S,13′R,16′R,16a′R,18a′R,E)-6-chloro-5-fluoro-11′,12′-dimethyl-16′-(2-oxo-2-(pyrrolidin-1-yl)ethoxy)-3,4,12′,13′,16′,16a′,17′,18′,18a′,19′-decahydro-1′H,2H,3′H, 11′H-spiro[naphthalene-1,2′-[5,7]etheno[13,15]methanocyclobuta[i][1,4]oxazepino[3,4-f][1]thia[2,7]diazacyclohexadecin]-8′(9′H)-one 10′,10′-dioxide], the IC50 in assay [1] is 15 nM; in assay [2] (Homo sapiens, OPM-2, 24 h), 47 nM; in assay [3] (Homo sapiens, NCI-H929, 24 h), 43 nM.
Regarding `C[C@@H]1[C@@H](C)S(=O)(=O)NC(=O)c2ccc3c(c2)N(C[C@@H]2CC[C@H]2[C@@H](OCCN(C)S(C)(=O)=O)C2=C[C@H]1C2)C[C@@]1(CCCc2c1ccc(Cl)c2F)CO3` [compound 79, N-(2-(((1S,11′R,12′S,13′R,16′R,16a′R,18a′R,E)-6-chloro-5-fluoro-11′,12′-dimethyl-10′,10′-dioxido-8′-oxo-3,4,8′,9′,12′,13′,16′,16a′,17′,18′,18a′,19′-dodecahydro-1′H,2H,3′H, 11′H-spiro[naphthalene-1,2′-[5,7]etheno[13,15]methanocyclobuta[i][1,4]oxazepino[3,4-f][1]thia[2,7]diazacyclohexadecin]-16′-yl)oxy)ethyl)-N-methylmethanesulfonamide], the IC50 was 15 nM in assay [1]; 53 nM in assay [2] (Homo sapiens, OPM-2, 24 h); 58 nM in assay [3] (Homo sapiens, NCI-H929, 24 h).
In the case of `CO[C@H]1C2=CC(C2)CC(C)S(=O)(=O)NC(=O)c2ccc3c(c2)N(C[C@@H]2CC[C@H]21)C[C@@]1(CCCc2cc(Cl)ccc21)CO3` (single isomer, unassigned) [11 (Isomer 1)], the IC50 in assay [1] is 6.5 nM; in assay [2] (24 h), 87 nM; in assay [3] (24 h), 86 nM.
As for `CC[C@@H]1CS(=O)(=O)NC(=O)c2ccc3c(c2)N(C[C@@H]2CC[C@H]2[C@@H](OC)C2=CC1C2)C[C@@]1(CCCc2cc(Cl)ccc21)CO3` (single isomer, unassigned) [Cpd. No. 9 (Isomer 1)], the 50% inhibitory concentration (IC50) in assay [1] is 4.4 nM; in assay [2] (24 h), 1170 nM; in assay [3] (24 h), 680 nM.
On to `CO[C@@]1(CN2CCN3CCOC[C@H]3C2)C2=C[C@@H](C2)[C@H](C)[C@@H](C)S(=O)(=O)NC(=O)c2ccc3c(c2)N(C[C@@H]2CC[C@H]21)C[C@@]1(CCCc2c1ccc(Cl)c2F)CO3` [compound 34, (1S,11′R,12′S,13′R,16′R,16a′R,18a′R,E)-6-chloro-5-fluoro-16′-(((R)-hexahydropyrazino[2,1-c][1,4]oxazin-8(1H)-yl)methyl)-16′-methoxy-11′,12′-dimethyl-3,4,12′,13′,16′,16a′,17′,18′,18a′,19′-decahydro-1′H,2H,3′H,11′H-spiro[naphthalene-1,2′-[5,7]etheno[13,15]methanocyclobuta[i][1,4]oxazepino[3,4-f][1]thia[2,7]diazacyclohexadecin]-8′(9′H)-one 10′,10′-dioxide], for which the concentration for half-maximal inhibition (IC50) is 9.7 nM in assay [1]; 35 nM in assay [2] (Homo sapiens, OPM-2, 24 h); 16 nM in assay [3] (Homo sapiens, NCI-H929, 24 h).
For `CO[C@H]1C2=CC(C2)[C@H](C)N(C)S(=O)(=O)NC(=O)c2ccc3c(c2)N(C[C@@H]2CC[C@H]21)C[C@@]1(CCCc2cc(Cl)ccc21)CO3` (single isomer, unassigned) [26 (isomer 1)], the IC50 in assay [1] was determined as 14 nM; in assay [2] (24 h), 412 nM; in assay [3] (24 h), 160 nM.
`COCCO[C@H]1C2=C[C@@H](C2)[C@H](C)[C@@H](C)S(=O)(=O)NC(=O)c2ccc3c(c2)N(C[C@@H]2CC[C@H]21)C[C@@]1(CCCc2c1ccc(Cl)c2F)CO3` [compound 60, (1S,11′R,12′S,13′R,16′R,16a′R,18a′R,E)-6-chloro-5-fluoro-16′-(2-methoxyethoxy)-11′,12′-dimethyl-3,4,12′,13′,16′,16a′,17′,18′,18a′,19′-decahydro-1′H,2H,3′H,11′H-spiro[naphthalene-1,2′-[5,7]etheno[13,15]methanocyclobuta[i][1,4]oxazepino[3,4-f][1]thia[2,7]diazacyclohexadecin]-8′(9′H)-one 10′,10′-dioxide]: the IC50 in assay [1] worked out at 15 nM; in assay [2] (Homo sapiens, OPM-2, 24 h) it was 66 nM; in assay [3] (Homo sapiens, NCI-H929, 24 h), 19 nM.
Consider `CO[C@H]1C2=CC(C2)[C@H](C)[C@@H](C)S(=O)(=O)NC(=O)c2ccc3c(c2)N(C[C@@H]2CC[C@H]21)C[C@@]1(CCCc2c1cc(F)c(Cl)c2F)CO3` (single isomer, unassigned) [Cpd. No. 19], for which the IC50 stood at 19 nM in assay [1]; 802 nM in assay [2] (Homo sapiens, OPM-2, 24 h); 670 nM in assay [3] (Homo sapiens, NCI-H929, 24 h).
As for `CO[C@H]1C2=C[C@@H](C2)[C@H](C)[C@@H](C)S(=O)(=O)NC(=O)c2ccc3c(c2)N(C[C@@H]2CC[C@H]21)C[C@@]1(CCCc2c1cc(F)c(Cl)c2F)CO3` [compound 25], the 50% inhibitory concentration (IC50) in assay [1] is 420 nM; in assay [2] (Homo sapiens, OPM-2, 24 h), 2500 nM; in assay [3] (Homo sapiens, NCI-H929, 24 h), 3400 nM.
As to `CO[C@H]1C2=CC(C2)[C@@H](C)[C@H](C)S(=O)(=O)NC(=O)c2ccc3c(c2)N(C[C@@H]2CC[C@H]21)C[C@@]1(CCCc2cc(Cl)ccc21)CO3` (single isomer, unassigned) [12 (Isomer 1)], the IC50 is 4.8 nM in assay [1]; 17200 nM in assay [2] (Homo sapiens, OPM-2, 24 h); above 10000 nM in assay [3] (24 h).
For the molecule `C[C@@H]1[C@@H](C)S(=O)(=O)NC(=O)c2ccc3c(c2)N(C[C@@H]2CC[C@H]2[C@@H](OCC(=O)N2CCCCC2)C2=C[C@H]1C2)C[C@@]1(CCCc2c1ccc(Cl)c2F)CO3` [compound 69, (1S,11′R,12′S,13′R,16′R,16a′R,18a′R,E)-6-chloro-5-fluoro-11′,12′-dimethyl-16′-(2-oxo-2-(piperidin-1-yl)ethoxy)-3,4,12′,13′,16′,16a′,17′,18′,18a′,19′-decahydro-1′H,2H,3′H,11′H-spiro[naphthalene-1,2′-[5,7]etheno[13,15]methanocyclobuta[i][1,4]oxazepino[3,4-f][1]thia[2,7]diazacyclohexadecin]-8′(9′H)-one 10′,10′-dioxide], the 50% inhibitory concentration (IC50) in assay [1] came to 14 nM; in assay [2] (Homo sapiens, OPM-2, 24 h) it was 40 nM; in assay [3] (Homo sapiens, NCI-H929, 24 h), 69 nM.
Consider `C[C@@H]1[C@@H](C)S(=O)(=O)NC(=O)c2ccc3c(c2)N(C[C@@H]2CC[C@H]2[C@@H](OCCN2CCCS2(=O)=O)C2=C[C@H]1C2)C[C@@]1(CCCc2c1ccc(Cl)c2F)CO3` [compound 92, (1S,11′R,12′S,13′R,16′R,16a′R,18a′R)-6-chloro-16′-(2-(1,1-dioxidoisothiazolidin-2-yl)ethoxy)-5-fluoro-11′,12′-dimethyl-3,4,12′,13′,16′,16a′,17′,18′,18a′,19′-decahydro-1′H,2H,3′H,11′H-spiro[naphthalene-1,2′-[5,7]etheno[13,15]methanocyclobuta[i][1,4]oxazepino[3,4-f][1]thia[2,7]diazacyclohexadecin]-8′(9′H)-one 10′,10′-dioxide], for which the IC50 came out at 14 nM in assay [1]; 44 nM in assay [2] (Homo sapiens, OPM-2, 24 h); 59 nM in assay [3] (Homo sapiens, NCI-H929, 24 h).

The term IC50 denotes the concentration at which inhibition is half-maximal.
